# Experimental data as given in ChEMBL document CHEMBL1201862, “PubChem BioAssay data set” (2004).
#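 Each compound was tested at five concentrations against cells in 96-well plates for 48 hours. GI50 = concentration required for 50% inhibition of growth.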 Activity calls are given as the source filed them. Cut-off read from the data, not from the text of the source: active = GI50 up to about 1.1 µM and inactive = higher.
# Legend:
# Experiment in all cases: DTP human tumour cell line panel, 48 h
# DLD-1 = system: DLD-1
# DMS-273 = system: DMS-273
# HOP-18 = system: HOP-18
# KM-20L2 = system: KM-20L2
# LXFL 529 = system: LXFL 529
# M19-MEL = system: M19-MEL
# SNB-78 = system: SNB-78
# XF498 = system: XF498
# RXF 631 = system: RXF 631
Structure (SMILES),GI50 (DLD-1),GI50 (DMS-273),GI50 (HOP-18),GI50 (KM-20L2),GI50 (LXFL 529),GI50 (M19-MEL),GI50 (SNB-78),GI50 (XF498),GI50 (RXF 631)
N#CCCN(CCC#N)c1ccc(/C=C(/NC(=O)c2cc([N+](=O)[O-])ccc2Cl)C(=O)NN)cc1,> 100 µM (inactive),> 100 µM (inactive),> 100 µM (inactive),> 100 µM (inactive),54 µM (inactive),> 100 µM (inactive),> 100 µM (inactive),,
CC(=O)Oc1c(-c2ccccc2)[nH]c2cc([N+](=O)[O-])c(/C(Cl)=C/c3ccccc3)cc12,3.71 µM (inactive),,,3.41 µM (inactive),3.9 µM (inactive),3.31 µM (inactive),3.85 µM (inactive),4.36 µM (inactive),
C=CCC1(CN(C)C)CC/C(=C\c2ccc(OC)cc2)C1=O (stereo not drawn),34.2 µM (inactive),> 100 µM (inactive),> 100 µM (inactive),46.2 µM (inactive),47.2 µM (inactive),59.8 µM (inactive),> 100 µM (inactive),,25 µM (inactive)
Cc1ccccc1C(=O)Oc1ccc(OCc2ccccc2)cc1,> 100 µM (inactive),> 100 µM (inactive),> 100 µM (inactive),75.5 µM (inactive),87.9 µM (inactive),> 100 µM (inactive),> 100 µM (inactive),> 100 µM (inactive),
Clc1ccc(-c2c(C3=NCCN3)nnn2-c2ccccc2)cc1,> 100 µM (inactive),> 100 µM (inactive),> 100 µM (inactive),85.3 µM (inactive),> 100 µM (inactive),> 100 µM (inactive),> 100 µM (inactive),> 100 µM (inactive),
CCC(=O)CCC1=Nc2nnc(CCCCc3nnc4n3C(=O)C(CCC(=O)CC)=N4)n2C1=O,> 100 µM (inactive),> 100 µM (inactive),,> 100 µM (inactive),> 100 µM (inactive),> 100 µM (inactive),,> 100 µM (inactive),
Oc1ccccc1/C=N/Cc1ccco1,> 100 µM (inactive),,> 100 µM (inactive),> 100 µM (inactive),> 100 µM (inactive),> 100 µM (inactive),> 100 µM (inactive),> 100 µM (inactive),> 100 µM (inactive)
Nc1ccc2ncc(Nc3ccc(F)cc3)nc2c1,> 100 µM (inactive),> 100 µM (inactive),,,,94.6 µM (inactive),> 100 µM (inactive),> 100 µM (inactive),
O=C(CC/C(CC(=O)c1ccc(Cl)cc1)=N/O)Nc1ccc(Cl)c(Cl)c1,> 100 µM (inactive),> 100 µM (inactive),> 100 µM (inactive),36.2 µM (inactive),80.7 µM (inactive),> 100 µM (inactive),> 100 µM (inactive),> 100 µM (inactive),> 100 µM (inactive)
NC(=O)C12CC3CC(CC(F)(C3)C1)C2,> 100 µM (inactive),> 100 µM (inactive),,> 100 µM (inactive),> 100 µM (inactive),> 100 µM (inactive),> 100 µM (inactive),> 100 µM (inactive),
COc1ccc(CC(=O)NCCc2ccc(OC)c(OC)c2)cc1Br,> 100 µM (inactive),> 100 µM (inactive),,> 100 µM (inactive),> 100 µM (inactive),,,38.7 µM (inactive),
O=C1C2=C(c3ccccc31)C(c1ccccc1Cl)N1C(=O)CSC1=N2 (stereo not drawn),> 100 µM (inactive),> 100 µM (inactive),,> 100 µM (inactive),74.3 µM (inactive),> 100 µM (inactive),,64 µM (inactive),> 100 µM (inactive)
Nc1nc(N)c(CCCCc2ccccc2)c(/C=C/c2ccc([N+](=O)[O-])cc2)n1,2.39 µM (inactive),,,2.49 µM (inactive),3.21 µM (inactive),3.36 µM (inactive),2.59 µM (inactive),1.84 µM (inactive),
c1ccc(C2SCc3nc4ccccc4n32)cc1 (stereo not drawn),49.5 µM (inactive),33.7 µM (inactive),4.26 µM (inactive),47.6 µM (inactive),,41.7 µM (inactive),95.5 µM (inactive),20.7 µM (inactive),
CC(=O)OCC1OC(n2c(=S)n(-c3ccccc3)c(=O)c3cc(Br)ccc32)C(OC(C)=O)C1OC(C)=O (stereo not drawn),> 100 µM (inactive),> 100 µM (inactive),> 100 µM (inactive),> 100 µM (inactive),65.3 µM (inactive),> 100 µM (inactive),> 100 µM (inactive),71.8 µM (inactive),
C[N+](C)=c1nc(N2CCOCC2)ss1,,> 100 µM (inactive),,,> 100 µM (inactive),,> 100 µM (inactive),> 100 µM (inactive),0.337 µM (active)
COc1ccc(/C=C2\CCC(CN3CCOCC3)C2=O)cc1 (stereo not drawn),2.79 µM (inactive),,5.78 µM (inactive),6.3 µM (inactive),1.59 µM (inactive),4.31 µM (inactive),4.86 µM (inactive),3.56 µM (inactive),6.52 µM (inactive)
CC1=C2CC[C@@]3(C)C(=CCC3O)C2(C)CCC1=O (stereo partly drawn),> 100 µM (inactive),> 100 µM (inactive),> 100 µM (inactive),> 100 µM (inactive),> 100 µM (inactive),> 100 µM (inactive),> 100 µM (inactive),,> 100 µM (inactive)
O=C1C=C(N2CCCC2)C=C(N2CCCC2)C1,> 100 µM (inactive),> 100 µM (inactive),> 100 µM (inactive),> 100 µM (inactive),> 100 µM (inactive),28.1 µM (inactive),> 100 µM (inactive),> 100 µM (inactive),
Cc1nc2c(sc(=S)n2-c2ccccc2)c2nc3ccccc3n12,> 100 µM (inactive),> 100 µM (inactive),> 100 µM (inactive),,> 100 µM (inactive),> 100 µM (inactive),> 100 µM (inactive),,> 100 µM (inactive)
[O-][S+]1[C@H](c2ccccc2)c2c(-c3ccccc3)sc(-c3ccccc3)c2[C@@H]1c1ccccc1 (stereo partly drawn),33 µM (inactive),> 100 µM (inactive),11.4 µM (inactive),5.79 µM (inactive),> 100 µM (inactive),> 100 µM (inactive),,,39 µM (inactive)
Cc1ccc(S(=O)(=O)C2=c3nc4ccccc4cc3=C3C(=O)c4ccccc4C(=O)C32)cc1 (stereo not drawn),> 100 µM (inactive),> 100 µM (inactive),,> 100 µM (inactive),> 100 µM (inactive),> 100 µM (inactive),,> 100 µM (inactive),
O=c1c2ccccc2n2cnc3ccc(NCCNCCO)c1c32,2.59 µM (inactive),,2.4 µM (inactive),1.41 µM (inactive),2.3 µM (inactive),2.96 µM (inactive),2.06 µM (inactive),,1.26 µM (inactive)
CCOC(=O)C1=C(O)C(=O)c2ccoc2C1=O,,> 100 µM (inactive),> 100 µM (inactive),> 100 µM (inactive),,> 100 µM (inactive),> 100 µM (inactive),> 100 µM (inactive),
C[N+](C)(C)CC(=O)N/N=c1\cc(C(=O)Nc2ccc(N=O)cc2C#N)oc2cc(O)ccc12,> 100 µM (inactive),> 100 µM (inactive),> 100 µM (inactive),> 100 µM (inactive),> 100 µM (inactive),> 100 µM (inactive),> 100 µM (inactive),> 100 µM (inactive),> 100 µM (inactive)
O=C(O)CCN(CCCCN(CCC(=O)O)CCC(=O)O)CCC(=O)O,> 100 µM (inactive),> 100 µM (inactive),> 100 µM (inactive),,> 100 µM (inactive),> 100 µM (inactive),,> 100 µM (inactive),
COc1cc2ccc(/C(C)=N/OC(C)=O)cc2cc1OC,,73.8 µM (inactive),58.2 µM (inactive),> 100 µM (inactive),95.9 µM (inactive),> 100 µM (inactive),92.9 µM (inactive),83.6 µM (inactive),97.7 µM (inactive)
C=C(CN(C)C)C(=O)c1ccc(OC2OC(COC(C)=O)C(OC(C)=O)C(OC(C)=O)C2OC(C)=O)cc1 (stereo not drawn),0.912 µM (active),6.85 µM (inactive),3.54 µM (inactive),17.4 µM (inactive),1.52 µM (inactive),,8.93 µM (inactive),1.69 µM (inactive),14.3 µM (inactive)
